# Like-named read-outs stand apart in the source and are kept apart here.
# Tests used:
# microbivorous nematodes = details: 1-5 mgs KN3 per kg of soil, one week after application
# Description: (§1) The liquid potassium azide compound was added to the soil in an aqueous solution of amounts of: 1, 2, 3, 4 and 5 mgs KN3 per kg of soil. The formulation used for this experiment 1% KN3 and 0.5% sodium lauryl sulfate. Soil samples were collected one week after the application of the KN3 solution for nematological analysis using such techniques as the salad bowl incubation technique.
# reniform nematode = test system: reniform nematode
# Description: as §1
# "Young" soybean = details: range 1-8 mgs/Kg soil; sharpest increases at 1 and 2 mgs rates; soybean grown 7 weeks
# Description: (§2) In this example, the soil used was from a cotton field infested with the root-knot [Meloidogyne incognita], and lance [Hoplolaimus galeatus], nematodes—each a plant parasitic specie. The soil was mixed with washed siliceous river sand (in equal parts by volume), apportioned into one kg amounts in 4 L plastic bags and placed in pots. The test solution was prepared by dissolving 0.500 gms KN3 in an aqueous solution containing 50 mls of a 10% casein [w/v] solution in 0.1N NaOH and diluting with water to a final volume of 500 mls; the solution thus contained 1 mg KN3/ml. The solution was added to soil at rates of 1, 2, 4, 6, 8, and 10 mls/Kg soil. There were for each treatment and controls [no solution], a total of 7 pots each containing 1 Kg of soil. After application of the solution, for each rate, each pot was covered with a plastic bag. The pots were placed on a greenhouse bench and were arranged in a randomized block design. After 10 days the covers were removed, soil samples were collected from each pot for nematological analyses and “Young” soybean were planted [5 seed/pot]. The resulting plants were allowed to grow for 7 weeks when they were carefully separated from the soil and growth parameters measured. The roots and final soil samples were incubated to determine nematode populations. Nematode numbers in soil and roots were determined using the salad bowl incubation technique.
# [1] = test system: beneficial microbivorous nematodes
# Description: as §2
# lance nematode = details: applications of ≧2 mgs KN3/Kg soil, 10 days after application
# Description: as §2
# root-knot nematode [2] = details: applications of ≧2 mgs KN3/Kg soil, 10 days after application
# Description: as §2
# weeds [3] = test system: weeds
# 'Black Beauty' eggplant = details: eggplant grown 2 months; rates 0-5.0 g/plot
# Excerpt: (§3) The square microplots of 1 ft^2 [929 cm^2] and 2 feet [61 cms] deep having an open-bottom were used. Each microplot was delimited by a terra-cotta chimney flue. The soil filling the plot was a sandy loam [pH=6.2; organic matter content <1.0%; C.E.C <10 meq/100 g soil] and was infested with the nematodes: Meloidogyne incognita [root-knot], Paratrichodorus minor [stubby root], Tylenchorhynchus claytoni [stunt], and Helicotylenchus dihystera [spiral]. Weeds introduced into the plots were principally crabgrass [Digitaria sanguinalis], yellow nutsedge [Cyperus esculentum], pigweed [Amaranthus spp.], and morning glories [Ipomea spp., Jacquemontia tamnifolia].
# (§4) The plots were covered with standard polyethylene [1 mil] and after 10 days the cover was removed, the number of weeds was determined, soil samples for nematological analyses were taken and each plot was planted with two 3-week old ‘Black Beauty’ eggplant [Solanum melongena] seedlings. The plants were grown for 2 months and data were collected on yield, weed infestation and nematode populations.
# [4] = test system: plant parasitic nematodes
# Excerpt: as §3, §4
# weeds [5] = test system: weeds; remark: listed apart in the source
# Excerpt: as §3, §4
# "Rowden" cotton = test system: "Rowden" cotton
# Description: (§5) The aqueous formulation was a solution containing 1% [w/v] […] After thorough mixing, the contents of a bag were poured into 1 L capacity, 10-cm-diam cylindrical plastic pots which were then covered with standard polyethylene [[…]]. Each rate and the no treatment control was represented by 7 replications [pots] arranged in a randomized complete block design. Ten days after application of the chemical solution, the pots were uncovered and 5 seed of “Rowden” cotton [Gossypium hirsutum] were planted in each pot. The resulting plants were grown for 8 weeks. When the plants were removed after 8 weeks, soil samples were collected for nematological analyses. The shoots and roots of the plants were weighed and the root systems were examined and indexed for disease severity symptoms. Following examination, the roots were incubated to determine nematode populations.
# [6] = test system: plant parasitic nematodes (cotton wilt complex Fusarium oxysporum f sp. vasinfectum×Meloidogyne incognita); details: all NaN3 dosages, 10-100 mgs a.i./kg soil; 8 weeks after planting
# Description: as §5
# [7] = test system: plant parasitic nematodes; experiment: Microplot experiment, amine-protein stabilized NaN3, nematode control (Example 3); assay type: in vivo
# Excerpt: (§6) The formulation contained 5% [w/v] […] Soil in the microplots was a sandy loam [pH=6.2; organic matter content <1.0%; C.E.C <10 meq/100 g soil] infested with the nematodes: Meloidogyne incognita, Paratrichodorus minor, Tylenchorhynchus claytoni, and Helicotylenchus dihystera 1]. Weeds in the plots were principally crabgrass [Digitaria sanguinalis], yellow nutsedge [Cyperus esculentum], pigweed [Amaranthus spp.], and morning glories [Ipomea spp., Jacquemontia tamnifolia].
# (§7) The plots were covered with standard polyethylene [1 mil] tarp immediately after application of the chemical. After 10 days the cover was removed, the number of weeds was determined, soil samples for nematological analyses were taken and each plot was planted with two 4-week old ‘Huskie’ tomato seedlings. The plants were grown for 3 months and data were collected on yield, number of fruits, weed infestation and nematode populations.
# weeds [8] = experiment: Microplot experiment, amine-protein stabilized NaN3, weed control (Example 3); assay type: in vivo; details: all but the three lowest rates of NaN3
# Excerpt: as §6, §7
# 'Huskie' tomato = details: tomato grown 3 months
# Excerpt: as §6, §7
# [9] = test system: coastal bermuda grass, yellow nutsedge and other weeds
# Excerpt: (§8) The soil was a calcareous silty clay loam with pH 7.8 and <1% organic matter. […] Each dosage rate was delivered into pre-acidified soil as well as in non-acidified and administered using 3 different water levels: 3, 10, and 15 L/m^2. Acidification was with H2SO4 to lower soil pH to less than 7.00. […] After 3 weeks the soil was uncovered and a soil sample was removed for nematological analyses and the weeds were counted.
# root-knot nematode [10] = details: dosages of 100 and 200 kg/ha, 3 weeks after application
# Excerpt: as §8
# pepper or tomato plants = details: seedlings transplanted 6 weeks after NaN3 application, 100 and 200 kg/ha
# [11] = plots treated with ≦2.0 g NaN3 rates
# [12] = three highest rates (3.0, 4.0, 5.0 g/plot)
compound,measurement,setting,value
"[K+].[N-]=[N+]=[N-] [KN3, potassium azide]",numbers of microbivorous nematodes in response to increasing KN3,microbivorous nematodes,declined in an almost linear fashion
same,numbers of reniform nematode in response to increasing KN3,"reniform nematode; 1-5 mgs KN3 per kg of soil, one week after application",declined exponentially
same,control of the reniform nematodes,reniform nematode; rates of 4-5 mg of KN3 per kg of soil,~100%
same,plant response as measured by the weights of shoots and roots,"""Young"" soybean",positive and pronounced
same,numbers of beneficial microbivorous nematodes,[1]; 1 and 2 mg application rates,pronounced stimulation
same,populations of beneficial microbivorous nematodes,"[1]; application rates <6 KN3/Kg, final soil",not adversely affected
same,application rate necessary to significantly reduce or eliminate microbivorous nematodes,[1]; in vivo,> 4 mgs/Kg soils
same,lance nematode population in the preplant sample,lance nematode,eliminated
same,root-knot nematode population in the preplant sample,root-knot nematode [2],eliminated
same,number of weeds,weeds [3]; KN3 rates of 20-200 mg/kg of soil,declining in proportion to rates used
same,control rates for weeds,weeds [3]; rates of greater than 140 mg/kg of soil,over 80%
"[N-]=[N+]=[N-].[Na+] [NaN3, sodium azide]",yield and number of fruits,'Black Beauty' eggplant,increased directly in response to NaN3 rates from 0-1.5 g/plot and leveled out
same,nematodes in planting time soil samples,"[4]; 10 days after drench, plots treated with 0.5-5.0 g sodium azide/plot, control plots infested with all species",no nematodes
same,plant parasitic nematodes at the end of the experiment,[4]; [11],significant populations
same,plant parasitic nematodes at the end of the experiment,[4]; [12],no plant parasitic nematodes
same,weeds at planting,"weeds [5]; 10 days after drench, all but the two lowest rates of NaN3",no weeds
same,weeds at the end of the experiment,weeds [5]; [11],significant populations
same,weed infestation at the end of the experiment,weeds [5]; [12],no significant weed infestation
same,weights of shoots and roots,"""Rowden"" cotton; NaN3 rates 10-60 mgs/kg soil",Sharp increases
same,weights of shoots and roots,"""Rowden"" cotton; NaN3 rates ≧70 mgs/kg soil",no additional weight increments
same,cotton root health [root condition index],"""Rowden"" cotton; all NaN3 dosages, 10-100 mgs/kg soil",markedly improved
same,plant parasitic nematodes in soil and roots,[6],eliminated from the soil and roots
same,nematodes in soil samples at planting,"[7]; 10 days after drench, 0.5-5.0 g/plot, controls had significant numbers of all species",did not contain nematodes
same,plant parasitic nematodes at the end of the experiment,[7]; all rates of application,no plant parasitic nematodes
same,weeds at planting time,weeds [8],no weeds
same,yield and number of fruits,'Huskie' tomato,increased directly in response to NaN3 rates from 0-4 g/plot
same,effectiveness against nutsedge,[9]; 100 and 200 kg/ha,particularly effective
same,weeds controlled,"[9]; dosages of 100 and 200 kg/ha, 3 weeks after application",all weeds
same,nematodes controlled,root-knot nematode [10],greater than 90%
same,phytotoxicity to pepper or tomato plants,pepper or tomato plants,no evidence of phytotoxicity

# — patent publication US6852341B2 (priority 2000, dated 2005)
